For data set [1], the system named is Clavibacter michiganensis sub. michiganensis. As to conditions: overnight 25° C., Table 1.
Data set [2] relates to Pseudomonas syringae pv. tomato. As to conditions: Pseudomonas syringae pv. tomato; overnight 25° C.; Table 1.
Data set [3] has as its system Pseudomonas corrugata. As to conditions: Pseudomonas corrugata; overnight 25° C.; Table 1.
Data set [4] relates to Pectobacterium carotovorum sub. carotovorum. The following applies: Pectobacterium carotovorum sub. carotovorum; overnight 25° C.; Table 1.
Data set [5] concerns Xanthomonas vesicatoria. As to conditions: Xanthomonas vesicatoria; overnight 25° C.; Table 1.
The subject of data set [6] is Cladosporium herbarum. Put plainly: MIC, antifungal in-vitro inhibition assay (Example 2). Format: cell-based. The following applies: Table 1. The method, then: (§1) In-vitro inhibition assays were performed in sterile flat-bottom 96-well plates (Greiner bio-one, Frickenhausen). Antimicrobial peptides were dissolved in 0.01% acetic acid containing 0.2% BSA (500 μg/ml), filter sterilized and stored at −20° C. For inhibition assays dilutions of peptides ranging from 5 to 200 μg/ml were prepared and 10 μl (antibacterial assay) or 20 μl (antifungal assay) of each concentration was loaded per well.
(§2) Spores of fungi were collected by water washes of sporulating cultures grown on 2% malt extract agar and spore concentration was determined by microscopy. The concentration of the spores was adjusted to 1.5-2×10^3 spores/ml in 2% malt extract medium and 80 μl of fungal spores were added per well. The final peptide concentrations used in the fungal inhibition assays were […]. After overnight incubation at room temperature the plate were put on a rotary shaker (300 rpm) for further two days to ensure consistantly growth. Antifungal effects of the peptides were determined by a microplate reader (Alternaria, Fusarium) at OD590 nm or by visual screening of the plates (Botrytis, Cladosporium).
(§3) The lowest peptide concentration leading to complete inhibition of bacterial growth or spore germination/mycelial growth (minimal inhibition concentration, MIC) was determined for each organism-peptide combination. For each peptide concentration two identical inhibition assays were performed.

Data set [7] relates to Botrytis cinerea. The description is as above. Type of data set: cell-based. The following applies: Table 1. The method, then: as §1, §2, §3
The test system of data set [8] is Alternaria alternata. Described as above. Format: cell-based. As to conditions: Table 1. The method, then:
as §1, §2, §3

For data set [9], the system named is human erythrocytes. Briefly: Hemolytic activity, hemoglobin release. As to conditions: 45 min at 37° C., Table 3. Type of data set: cell-based. Here is the method: The hemolytic activity of the peptides was evaluated by determining hemoglobin release of suspensions of fresh human erythrocytes at 405 nm. Human red blood cells were centrifuged and washed three times with Tris-buffer (10 mM Tris, 150 mM NaCl, pH 7.4). Eighty μl of human red blood cells (1.5×10^9/ml) were added to 20 μl of the peptides solution (peptides dissolved in 0.2% BSA, 0.01% HAc) in 96-well plates (Greiner bio-one, Frickenhausen) and incubated for 45 min at 37° C. The endconcentration of the peptides were 0, 20, 50, 100 and 200 μg/ml. After centrifugation (1500×g, 5 min, 20° C.) 30 μl aliquots of the supernatant were transferred to 96-well plates containing 100 μl water. Hemolysis was measured by absorbance at 405 nm with a microplate reader. 100% hemolysis were determined in 2% SDS. The hemolysis percentage was calculated using the following equation: % hemolysis=[(Abs405 nm in the peptide solution−Abs405 nm in peptides solvent)/(Abs405 nm in 2% SDS−Abs405 nm in peptide solvent)]×100.
Further hemolytic activities of the various peptides of the present invention may be taken from the table depicted in example 3, last row indicated as “Hemolytic activity”. In connection therewith, however, the concentrations are stated where at least 50% hemolysis was observed.

Data set [10] relates to Pseudomonas syringae pv. syringae. The following applies: Pseudomonas syringae pv. syringae; overnight 25° C.; Table 1.
Data set [11] has the same test system. Put plainly: MIC and lethal concentration (Example 3). Type of data set: cell-based. The following applies: Table 2; for MIC (>90% inhibition): 1-2 days at 25° C.; for LC, lethal concentration (100% inhibition): at least 4 days of incubation. The method, then:
as §1
(§4) Bacteria colonies from overnight agar plate cultures were resuspended into 5 ml LB-medium or HPG-medium (OD600 nm=0.08-0.1) and diluted into LB-medium/HPG-medium (1:100). 90 μl of this suspension containing about 10^5-10^6 CFU/ml of tested bacteria were added to each well resulting in final peptide concentrations of 0, 0.5, 1, 2, 5, 10, and 20 μg/ml. […] The lowest concentration, in which there is no observable growth (>90% inhibition) is referred to as minimal inhibitory concentration (MIC). […] For each peptide concentration two identical inhibition assays were performed.

Data set [12] relates to Pseudomonas syringae pv. tomato. Put plainly: MIC and lethal concentration (Example 3). Format: cell-based. The following applies: Table 2; for MIC (>90% inhibition): 1-2 days at 25° C.; for LC, lethal concentration (100% inhibition): at least 4 days of incubation. Here is the method:
as §1, §4

Data set [13] has as its system Xanthomonas vesicatoria. Briefly: MIC and lethal concentration (Example 3). Type of data set: cell-based. The following applies: Table 2; for MIC (>90% inhibition): 1-2 days at 25° C.; for LC, lethal concentration (100% inhibition): at least 4 days of incubation. Here is the method:
as §1, §4

The subject of data set [14] is Pseudomonas corrugata. Briefly: MIC and lethal concentration (Example 3). Format: cell-based. The following applies: Table 2; for MIC (>90% inhibition): 1-2 days at 25° C.; for LC, lethal concentration (100% inhibition): at least 4 days of incubation. Here is the method:
as §1, §4

The subject of data set [15] is Pectobacterium carotovorum. Briefly: MIC and lethal concentration (Example 3). As to conditions: Table 2; for MIC (>90% inhibition): 1-2 days at 25° C.; for LC, lethal concentration (100% inhibition): at least 4 days of incubation. Type of data set: cell-based. The method, then:
as §1, §4

The test system of data set [16] is Clavibacter michiganensis. Put plainly: MIC and lethal concentration (Example 3). Type of data set: cell-based. As to conditions: Table 2; for MIC (>90% inhibition): 1-2 days at 25° C.; for LC, lethal concentration (100% inhibition): at least 4 days of incubation. The method, then:
as §1, §4

In data set [17] the test system is Staphylococcus epidermidis. Type of data set: cell-based. The method, then:
(§5) In-vitro inhibition assays were performed in sterile ELISA-plates (Greiner bio-one, Frickenhausen or Nunc, Wiesbaden). Antimicrobial peptides were dissolved in 0.01% acetic acid containing 0.2% BSA and stored at −20° C. […] After incubation for one day at 27° C. growth inhibition of the bacteria was analyzed by a ELISA microplate reader.

The test system of data set [18] is Pseudomonas aeruginosa. Type of data set: cell-based. Here is the method:
as §5

In data set [19] the test system is Yersinia enterocolitica. Format: cell-based. Here is the method:
as §5

Data set [20] relates to Escherichia coli (DH5α). Type of data set: cell-based. Here is the method:
as §5

For data set [21], the system named is Staphylococcus aureus. Format: cell-based. Here is the method:
as §5

Where two headings read alike, the source gives them in different places. No end group written: not given here.

Take “LKALRKALKHLA-NH2 [SP12, LKALRKALKHLA -NH2]”: the “Minimal inhibition concentration (MIC) for complete inhibition of bacterial growth” value in data set [1] is above 40 µg/mL; in [2] it was 2.5 µg/mL; in data set [3], above 40 µg/mL; in data set [4], above 40 µg/mL; in [5], 20 µg/mL; in data set [10], 10 µg/mL. In addition, the “Minimal inhibition concentration (MIC) for complete inhibition of spore germination/mycelial growth” value is 20 µg/mL in data set [6], above 100 µg/mL in data set [7] and above 100 µg/mL in data set [8]. In [9], the “Hemolytic activity, concentration where at least 25% hemolysis was observed” value is above 200 µg/mL.

With LLKALKKLLKKLL-NH2 [SP9], the “Minimal inhibition concentration (MIC) for complete inhibition of bacterial growth” value in [1] was 10 µg/mL; in [2], 10 µg/mL; in data set [3], above 40 µg/mL; in data set [4], above 40 µg/mL; in data set [5], 5 µg/mL; in [10], 10 µg/mL. Also, the “Minimal inhibition concentration (MIC) for complete inhibition of spore germination/mycelial growth” value in data set [6] was 40 µg/mL; in [7], above 100 µg/mL; in data set [8] it was above 100 µg/mL. Besides, the “Hemolytic activity, concentration where at least 25% hemolysis was observed” value in data set [9] is 50 µg/mL.

In the case of LRFLKKALKKLF-NH2 [SP10-2], the “MIC (>90% inhibition)” value in [11] was 0.1 µg/mL; in [12] it was 0.5/0.5 μg/ml; in data set [13], 0.25/0.25 μg/ml; in data set [14] it was 0.5/0.5 μg/ml; in data set [15], 1.0 µg/mL; in [16] it was 0.25/0.25 μg/ml. Besides, the “MIC (>90% inhibition)” value in data set [17] is 1 µg/mL; in [18] it was 1 µg/mL; in [19], 10 µg/mL; in [20] (DH5α), 1 µg/mL; in data set [21], 1 µg/mL. Moreover, the “LC, lethal concentration (100% inhibition)” value was 0.25 µg/mL in data set [11]; 0.5/0.5 μg/ml in data set [12]; 0.25/0.25 μg/ml in data set [13]; 0.5/0.5 μg/ml in [14]; 2.5 µg/mL in [15]; 0.25/0.25 μg/ml in data set [16].

As to “LRFLKKILKHLF (also: D-amino acids incorporated, places not given here) [SP10-D]”, the “Minimal inhibition concentration (MIC) for complete inhibition of bacterial growth” value in data set [1] is 5 µg/mL; in data set [2] it was 0.5 µg/mL; in data set [3] it was 2.5 µg/mL; in data set [4], above 40 µg/mL; in [5] it was 2 µg/mL; in [10], 2.5 µg/mL. Moreover, the “Minimal inhibition concentration (MIC) for complete inhibition of spore germination/mycelial growth” value is 5 µg/mL in data set [6], 10 µg/mL in [7] and 5 µg/mL in data set [8]. In data set [9], the “Hemolytic activity, concentration where at least 25% hemolysis was observed” value was above 200 µg/mL.

For LRKLKKILKKLF-NH2 [SP10-10], the “MIC (>90% inhibition)” value in data set [11] is 0.25 µg/mL; in [12], 0.5 µg/mL; in data set [13], 0.1 µg/mL; in data set [14], 0.25/0.25 μg/ml; in data set [15] it was 2.5 µg/mL; in [16], 0.25 µg/mL. For the same substance, the “MIC (>90% inhibition)” value in data set [17] (Staphylococcus epidermidis, one day at 27° C., Table 4) is 1 µg/mL; in data set [18] (Pseudomonas aeruginosa, one day at 27° C., Table 4) it was 2 µg/mL; in data set [19] (Yersinia enterocolitica, one day at 27° C., Table 4), above 50 µg/mL; in [20] (Escherichia coli (DH5α), one day at 27° C., Table 4) it was 1 µg/mL; in [21] (Staphylococcus aureus, one day at 27° C., Table 4), 10 µg/mL. Besides, the “LC, lethal concentration (100% inhibition)” value in data set [11] was 0.5 µg/mL; in data set [12], 1.0 µg/mL; in data set [13] it was 0.5 µg/mL; in [14], 0.25/0.25 μg/ml; in data set [15], 5.0 µg/mL; in data set [16] it was 0.5 µg/mL.

The record behind these values is patent US20120020940A1, “ANTIMICROBIAL PEPTIDES” (Helmholtz Zentrum München Deutsches Forschungszentrum Für …, priority 2008, published 2012).
